These results are taken from patent US20230312752A1 (Brown University, priority 2021, published 2023).

Counter-ions that a name gives are not always drawn.

One experiment deals with CDK4 (Homo sapiens, UniProt P11802). Conditions: cited from earlier work.
A further experiment addresses CDK1 (Homo sapiens, UniProt P06493). Conditions: cited from earlier work.
The target of the next experiment is CDK6 (Homo sapiens, UniProt Q00534). The arrangement: key to the marks not given beside the values. Conditions: cited from earlier work.
A further experiment deals with CDK9 (Homo sapiens, UniProt P50750). The arrangement: key: + is used to indicate the potency of the inhibitor; ++++ > +++ > ++ > +; + is used to indicate the potency of the inhibitor; ++++ > +++ > ++ > +; + is used to indicate the potency of the inhibitor; ++++ > +++ > ++ > +; + is used to indicate the potency of the inhibitor; ++++ > +++ > ++ > +; ◯ refers to compounds with inhibitory effects on the related isoform, but without specific value. The conditions noted are these: cited from earlier work.

The target of another experiment is CDK5 (Homo sapiens, UniProt Q00535). Conditions: cited from earlier work.
The next experiment has as its target CDK7 (Homo sapiens, UniProt P50613). Conditions: cited from earlier work.
A further experiment addresses CDK2 (Homo sapiens, UniProt P24941). The conditions noted are these: cited from earlier work.
Experiment [1] relates to ACE2. The experiment is classed as cell-based, human.
The test system of another experiment is TMPRSS2, CTSL and FURIN. It counts as cell-based, human.
The subject of another experiment is CLK. Further details: key: + is used to indicate the potency of the inhibitor; ++++ > +++ > ++ > +; + is used to indicate the potency of the inhibitor; ++++ > +++ > ++ > +; + is used to indicate the potency of the inhibitor; ++++ > +++ > ++ > +; + is used to indicate the potency of the inhibitor; ++++ > +++ > ++ > +; ◯ refers to compounds with inhibitory effects on the related isoform, but without specific value. The conditions noted are these: cited from earlier work.

Experiment [2] concerns ACE2, TMPRSS2, and CTSL. As to the kind of experiment: mRNA levels in A549 cells (qRT-PCR). Conditions: 24 hr. The experiment is classed as cell-based, human. How it is done: Cells were incubated with rhCHI3L1 from a commercial source (R&D Inc.) and rhCHI3L1 generated at Brown University (Brown) and compared to vehicle controls. mRNA was then extracted and the levels of mRNA for ACE2 and CTSL were evaluated by real time qRT-PCR. Levels were expressed in relationship to GAPDH controls. *p<0.05; **p<0.01 (Student's t-test).
A549 cells were incubated with the noted concentrations of rhCHI3L1 for the note amounts of time. The levels of mRNA encoding ACE2, TMPRSS2, and CTSL were assessed via qRT-PCR. The statistics compare cells incubated with vehicle control (nothing tested, NT) and cells incubated with 250 ng/ml of rhCHI3L1. […]
Total cellular RNA was obtained using TRIzol reagent (ThermoFisher Scientific) followed by RNA extraction using RNeasy Mini Kit (Qiagen, Germantown, MD) according to the manufacturer's instructions. mRNA was measured and used for real time (RT)-PCR as described previously.^79,80 The primer sequences used in these studies are summarized in Table 1. […]
In the first study, A549 cells were incubated with rhCHI3L1 from a commercial source (R&D Inc.) and rhCHI3L1 generated at Brown University (Brown). The cells were incubated for 24 hr with stimulation of rhCHI3L1 (500 ng/mL) at 37° C. mRNA was then extracted and the levels of mRNA for ACE2 and CTSL were evaluated by real time qRT-PCR and compared to vehicle controls. […]
For orientation: In qPCR the cycle at which signal appears reflects the starting amount.

The subject of experiment [3] is ACE2. As to the kind of experiment: Immunocytochemical evaluation of ACE2 in Calu-3 cells. The experiment is classed as cell-based, human. Conditions: CHI3L1 250 ng/mL; double labeled ICC.
The test system of experiment [4] is pseudovirus with the ancestral G614 S protein. The experiment is classed as cell-based, SARS-CoV-2.
Experiment [5] has as its system pseudoviruses with delta S proteins. It counts as cell-based, SARS-CoV-2.
Experiment [6] concerns ACE2, TMPRSS2, and CTSL. As to the kind of experiment: mRNA levels in normal human small airway epithelial cells (qRT-PCR). It counts as cell-based. The conditions noted are these: normal HSAEC, rhCHI3L1 500 ng/mL, 24 hours. On the procedure:
HSAEC were incubated with the noted concentrations of recombinant rhCHI3L1 for 24 hours. The levels of mRNA encoding ACE2, TMPRSS2, and CTSL were assessed via qRT-PCR. The levels are expressed in relationship to GAPDH controls. *p<0.05 (Student's t-test).
Total cellular RNA was obtained using TRIzol reagent (ThermoFisher Scientific) followed by RNA extraction using RNeasy Mini Kit (Qiagen, Germantown, MD) according to the manufacturer's instructions. mRNA was measured and used for real time (RT)-PCR as described previously.^79,80 The primer sequences used in these studies are summarized in Table 1. Ct values of the test genes were normalized to the internal housekeeping gene […].
In the present study, normal HSAEC were incubated with 0, 100 ng/mL, or 500 ng/mL of rhCHI3L1 for 24 hours at 37° C. The levels of mRNA encoding ACE2, TMPRSS2, and CTSL were assessed via qRT-PCR and expressed in relationship to GAPDH controls.

The subject of experiment [7] is pseudovirus containing the S protein (D614 and G614 variants). The experiment is classed as cell-based. The conditions noted are these: Calu-3 cells, rCHI3L1 24 hours, GFP.
Setting [8] is: Calu-3 cells, rhCHI3L1 250 ng/mL, 24 hours, vs vehicle.

Chain of CDK4 (P11802 whole entry, species assumed): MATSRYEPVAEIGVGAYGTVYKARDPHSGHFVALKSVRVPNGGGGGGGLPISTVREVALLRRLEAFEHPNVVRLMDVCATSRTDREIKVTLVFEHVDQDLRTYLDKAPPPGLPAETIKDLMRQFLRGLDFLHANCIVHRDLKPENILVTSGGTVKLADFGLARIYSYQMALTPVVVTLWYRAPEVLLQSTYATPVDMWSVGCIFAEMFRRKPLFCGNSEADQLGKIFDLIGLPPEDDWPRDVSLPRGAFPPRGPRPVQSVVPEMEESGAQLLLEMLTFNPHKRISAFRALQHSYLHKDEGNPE
Chain of CDK4 (P24385 whole entry partner, species assumed): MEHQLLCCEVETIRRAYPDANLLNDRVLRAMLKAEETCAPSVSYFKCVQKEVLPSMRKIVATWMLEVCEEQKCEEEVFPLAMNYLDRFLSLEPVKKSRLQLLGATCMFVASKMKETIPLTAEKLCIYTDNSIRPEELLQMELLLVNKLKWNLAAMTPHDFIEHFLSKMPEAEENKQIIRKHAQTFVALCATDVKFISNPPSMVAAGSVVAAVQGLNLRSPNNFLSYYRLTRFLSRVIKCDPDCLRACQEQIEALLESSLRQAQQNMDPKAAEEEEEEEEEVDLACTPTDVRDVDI
Chain of CDK1 (P06493 whole entry, species assumed): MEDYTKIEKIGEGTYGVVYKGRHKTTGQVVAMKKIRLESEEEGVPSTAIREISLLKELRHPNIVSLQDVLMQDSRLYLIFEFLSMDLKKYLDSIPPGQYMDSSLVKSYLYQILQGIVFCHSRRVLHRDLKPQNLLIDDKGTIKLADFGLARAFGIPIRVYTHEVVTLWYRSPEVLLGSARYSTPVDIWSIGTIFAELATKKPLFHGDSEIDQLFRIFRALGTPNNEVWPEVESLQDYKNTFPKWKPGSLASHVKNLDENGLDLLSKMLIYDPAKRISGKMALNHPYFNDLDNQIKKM
Chain of CDK1 (P14635 whole entry partner, species assumed): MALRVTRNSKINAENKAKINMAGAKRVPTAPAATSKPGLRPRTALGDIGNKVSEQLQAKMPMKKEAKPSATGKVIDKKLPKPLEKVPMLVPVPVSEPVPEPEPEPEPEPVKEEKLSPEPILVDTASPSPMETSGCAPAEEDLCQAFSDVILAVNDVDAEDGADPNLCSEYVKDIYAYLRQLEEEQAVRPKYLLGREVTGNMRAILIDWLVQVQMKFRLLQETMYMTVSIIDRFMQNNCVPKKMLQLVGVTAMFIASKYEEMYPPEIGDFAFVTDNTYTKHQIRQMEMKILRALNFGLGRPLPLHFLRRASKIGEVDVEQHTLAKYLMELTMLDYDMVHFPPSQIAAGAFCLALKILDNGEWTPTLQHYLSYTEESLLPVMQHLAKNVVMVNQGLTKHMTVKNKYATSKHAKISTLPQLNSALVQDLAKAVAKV
Chain of CDK9 (P50750 whole entry, canonical isoform): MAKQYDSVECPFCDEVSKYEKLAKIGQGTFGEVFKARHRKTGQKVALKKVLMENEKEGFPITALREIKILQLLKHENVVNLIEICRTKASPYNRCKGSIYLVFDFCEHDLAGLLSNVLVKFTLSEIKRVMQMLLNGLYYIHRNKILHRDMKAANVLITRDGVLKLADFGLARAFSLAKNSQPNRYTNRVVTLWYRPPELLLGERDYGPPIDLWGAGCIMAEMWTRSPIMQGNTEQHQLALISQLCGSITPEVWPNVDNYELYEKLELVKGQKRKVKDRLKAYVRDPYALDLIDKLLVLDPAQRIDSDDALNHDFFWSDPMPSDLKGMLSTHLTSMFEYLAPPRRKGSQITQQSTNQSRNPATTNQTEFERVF
Chain of CDK9 (O60563 whole entry, further chain, canonical isoform): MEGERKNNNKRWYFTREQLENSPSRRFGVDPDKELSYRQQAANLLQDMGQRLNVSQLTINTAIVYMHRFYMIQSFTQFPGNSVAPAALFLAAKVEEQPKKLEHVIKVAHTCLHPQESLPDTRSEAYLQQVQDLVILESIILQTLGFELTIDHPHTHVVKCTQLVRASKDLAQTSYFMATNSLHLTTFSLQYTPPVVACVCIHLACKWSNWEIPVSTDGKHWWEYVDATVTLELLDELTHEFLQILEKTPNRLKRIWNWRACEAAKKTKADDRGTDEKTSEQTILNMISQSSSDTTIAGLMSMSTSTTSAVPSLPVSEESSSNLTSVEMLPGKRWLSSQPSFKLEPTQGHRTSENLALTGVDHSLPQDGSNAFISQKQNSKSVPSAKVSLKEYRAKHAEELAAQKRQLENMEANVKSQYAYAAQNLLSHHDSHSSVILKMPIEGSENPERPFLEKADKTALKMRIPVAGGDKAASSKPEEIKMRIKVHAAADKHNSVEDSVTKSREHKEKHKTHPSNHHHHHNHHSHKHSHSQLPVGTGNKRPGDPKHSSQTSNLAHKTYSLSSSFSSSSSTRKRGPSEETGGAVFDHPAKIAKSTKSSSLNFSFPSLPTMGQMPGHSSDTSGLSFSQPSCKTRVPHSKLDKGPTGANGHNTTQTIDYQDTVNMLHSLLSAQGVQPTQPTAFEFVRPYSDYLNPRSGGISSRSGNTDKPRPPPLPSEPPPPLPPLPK
Chain of CDK6 (Q00534 whole entry, canonical isoform): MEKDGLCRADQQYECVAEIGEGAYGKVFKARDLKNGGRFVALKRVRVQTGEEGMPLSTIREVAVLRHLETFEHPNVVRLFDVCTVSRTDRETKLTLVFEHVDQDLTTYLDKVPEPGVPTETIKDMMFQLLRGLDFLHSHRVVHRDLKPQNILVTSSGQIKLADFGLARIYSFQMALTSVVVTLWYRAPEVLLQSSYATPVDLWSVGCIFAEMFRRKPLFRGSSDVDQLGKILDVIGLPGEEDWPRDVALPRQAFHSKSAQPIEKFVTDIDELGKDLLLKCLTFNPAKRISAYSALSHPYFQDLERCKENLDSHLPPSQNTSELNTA
Chain of CDK6 (P30281 whole entry, further chain, canonical isoform): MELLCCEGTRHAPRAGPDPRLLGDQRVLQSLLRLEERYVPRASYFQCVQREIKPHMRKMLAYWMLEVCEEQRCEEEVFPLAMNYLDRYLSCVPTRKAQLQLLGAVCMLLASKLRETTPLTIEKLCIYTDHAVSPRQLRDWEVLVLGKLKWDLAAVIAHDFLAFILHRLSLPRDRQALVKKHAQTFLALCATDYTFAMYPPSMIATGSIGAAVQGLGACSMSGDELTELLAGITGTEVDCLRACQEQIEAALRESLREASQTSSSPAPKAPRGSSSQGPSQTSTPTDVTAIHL
Chain of CDK5 (Q15078 99-307): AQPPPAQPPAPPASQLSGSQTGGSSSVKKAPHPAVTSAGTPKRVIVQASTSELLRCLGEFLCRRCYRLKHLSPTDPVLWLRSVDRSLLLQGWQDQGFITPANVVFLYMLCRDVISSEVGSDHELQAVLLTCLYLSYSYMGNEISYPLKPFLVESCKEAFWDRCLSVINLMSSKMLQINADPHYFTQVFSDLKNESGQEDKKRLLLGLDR
Chain of CDK5 (Q00535 whole entry): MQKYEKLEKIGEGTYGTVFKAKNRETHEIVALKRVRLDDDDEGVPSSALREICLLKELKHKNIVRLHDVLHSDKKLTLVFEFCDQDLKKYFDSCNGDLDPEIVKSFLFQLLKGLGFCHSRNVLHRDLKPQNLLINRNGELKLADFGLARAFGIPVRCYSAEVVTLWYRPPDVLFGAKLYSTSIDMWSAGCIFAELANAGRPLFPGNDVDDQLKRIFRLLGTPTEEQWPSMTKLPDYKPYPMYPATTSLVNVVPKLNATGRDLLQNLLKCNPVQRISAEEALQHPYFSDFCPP
Chain of CDK7 (P50613 whole entry): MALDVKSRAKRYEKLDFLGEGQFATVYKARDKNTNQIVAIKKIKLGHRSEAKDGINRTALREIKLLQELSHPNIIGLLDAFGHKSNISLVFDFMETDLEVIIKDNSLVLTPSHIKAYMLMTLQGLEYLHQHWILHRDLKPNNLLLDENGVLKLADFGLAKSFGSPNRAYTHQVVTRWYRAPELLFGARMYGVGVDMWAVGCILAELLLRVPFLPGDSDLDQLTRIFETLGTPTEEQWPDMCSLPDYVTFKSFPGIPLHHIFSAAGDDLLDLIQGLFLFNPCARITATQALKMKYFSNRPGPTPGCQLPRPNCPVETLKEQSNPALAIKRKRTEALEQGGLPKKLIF
Chain of CDK7 (P51946 whole entry, further chain): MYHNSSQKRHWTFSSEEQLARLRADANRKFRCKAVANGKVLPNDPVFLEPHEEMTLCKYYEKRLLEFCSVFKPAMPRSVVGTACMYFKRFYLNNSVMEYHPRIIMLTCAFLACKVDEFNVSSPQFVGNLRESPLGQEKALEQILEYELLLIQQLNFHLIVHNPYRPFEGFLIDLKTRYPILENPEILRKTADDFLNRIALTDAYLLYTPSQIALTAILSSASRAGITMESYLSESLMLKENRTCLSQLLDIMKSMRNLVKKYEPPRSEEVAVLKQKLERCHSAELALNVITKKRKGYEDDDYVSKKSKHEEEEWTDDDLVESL
Chain of CDK7 (P51948 whole entry, further chain): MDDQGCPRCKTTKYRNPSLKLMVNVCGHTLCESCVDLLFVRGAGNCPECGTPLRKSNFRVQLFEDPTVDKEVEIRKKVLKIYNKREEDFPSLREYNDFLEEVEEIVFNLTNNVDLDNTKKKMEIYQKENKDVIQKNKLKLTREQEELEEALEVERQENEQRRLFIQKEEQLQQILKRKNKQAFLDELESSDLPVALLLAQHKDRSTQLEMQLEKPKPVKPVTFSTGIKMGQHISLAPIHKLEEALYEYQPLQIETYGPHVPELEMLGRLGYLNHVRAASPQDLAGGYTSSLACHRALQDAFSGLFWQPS

Take `C[C@H]1CC[C@H](n2c3cnccc3c3cnc(Nc4ccc5c(n4)CCN(C(=O)CO)C5)nc32)CC1` [AMG-925]: the “Inhibitory potency CDK4” value on CDK4 is listed as “++++”. For the same molecule, at CDK1, the “Inhibitory potency CDK1” value was “+”.
`O=C(NC1CCNCC1)c1[nH]ncc1NC(=O)c1c(Cl)cccc1Cl` [AT7519 HCl]: at CDK6, the “Inhibitory potency CDK6” value is listed as “++”. The “Inhibitory potency CDK9” value at CDK9 was “++++”. In addition, the “Inhibitory potency CDK4” value at CDK4 is on record as “++”. In addition, at CDK5, the “Inhibitory potency CDK5” value is “+++”. For the same molecule, at CDK1, the “Inhibitory potency CDK1” value is reported as “++”.
On to `O=C(NC1CCNCC1)c1[nH]ncc1NC(=O)c1c(Cl)cccc1Cl` [AT7519], for which, at CDK7, the “Inhibitory potency CDK7” value is recorded as “+”.
`Cc1ncc(-c2ccnc(Nc3ccc(S(C)(=O)=O)cc3)n2)n1C(C)C` [AZD5438]: at CDK9, the “Inhibitory potency CDK9” value is recorded as “+++”. Also, the “Inhibitory potency CDK1” value at CDK1 is listed as “+++”.
`CCCCOc1c(C(=O)c2c(F)cc(C)cc2F)c[nH]c2nncc1-2` [BMS-265246]: the “Inhibitory potency CDK4” value at CDK4 is given as “++”. Besides, the “Inhibitory potency CDK2” value on CDK2 is “++++”. Besides, the “Inhibitory potency CDK1” value on CDK1 is recorded as “++++”.
Regarding `COc1ccc(CNc2nc(N(CCO)CCO)nc3c2ncn3C(C)C)cc1` [CVT 313], the “Inhibitory potency CDK4” value at CDK4 is on record as “+”. Moreover, the “Inhibitory potency CDK2” value on CDK2 was “+”. In addition, the “Inhibitory potency CDK1” value at CDK1 was “+”.
In the case of `CN1CC[C@H](c2c(O)cc(O)c3c(=O)cc(-c4ccccc4Cl)oc23)[C@H](O)C1` [Flavopiridol], the “Inhibitory potency CDK6” value on CDK6 is listed as “++”. For the same molecule, the “Inhibitory potency CDK7” value on CDK7 was “+”. Besides, the “Inhibitory potency CDK4” value at CDK4 is “+++”. Besides, at CDK2, the “Inhibitory potency CDK2” value was “+++”. In the experiment with ACE2 [1], the “ability of CHI3L1 to stimulate ACE2 mRNA accumulation” value is given as “potently inhibited” and the “levels of basal ACE2 expression” value is “diminished”. In addition, the “basal and CHI3L1-stimulated expression of TMPRSS2, CTSL and FURIN” value in the experiment on TMPRSS2, CTSL and FURIN is given as “potently decreased”. Also, on CDK1, the “Inhibitory potency CDK1” value was “+++”.
As for `Nc1nc(Nc2ccc(S(N)(=O)=O)cc2)nn1C(=O)c1c(F)cccc1F` [JNJ-7706621], the “Inhibitory potency CDK6” value at CDK6 was “++”. Moreover, on CDK4, the “Inhibitory potency CDK4” value is “+”. In addition, the “Inhibitory potency CDK2” value at CDK2 is “++++”. Further, the “Inhibitory potency CDK1” value on CDK1 is on record as “++++”.
On to `Cn1cc(-c2cnn3c(N)c(Br)c([C@@H]4CCCNC4)nc23)cn1` [MK-8776], for which, at CDK2, the “Inhibitory potency CDK2” value is “++”.
For `CNC(=O)c1nn(C)c2c1C(C)(C)Cc1cnc(Nc3ccc(N4CCN(C)CC4)cc3)nc1-2` [Milciclib], the “Inhibitory potency CDK7” value at CDK7 is given as “++”. For the same molecule, the “Inhibitory potency CDK4” value on CDK4 is reported as “++”. For the same molecule, at CDK5, the “Inhibitory potency CDK5” value was “+”. Further, the “Inhibitory potency CDK2” value at CDK2 is “+++”. Also, the “Inhibitory potency CDK1” value on CDK1 is listed as “+”.
Take `CC(C)CC(=O)Nc1[nH]nc2c1CN(C(=O)C1CCN(C)CC1)C2(C)C` [PHA-793887]: the “Inhibitory potency CDK7” value at CDK7 is listed as “++++”. Besides, on CDK9, the “Inhibitory potency CDK9” value is listed as “++”. The “Inhibitory potency CDK4” value at CDK4 was “++”. Further, the “Inhibitory potency CDK5” value on CDK5 is reported as “++++”. Further, the “Inhibitory potency CDK2” value on CDK2 was “++++”. In addition, on CDK1, the “Inhibitory potency CDK1” value is recorded as “++”.
For `CC(C)(C)c1cnc(CSc2cnc(NC(=O)C3CCNCC3)s2)o1` [SNS-032], the “Inhibitory potency CDK9” value on CDK9 is listed as “++++”. Besides, the “Inhibitory potency CDK5” value on CDK5 is “+”. Moreover, the “Inhibitory potency CDK1” value at CDK1 was “+”.
As to `COc1c(O)cc(O)c2c(=O)cc(-c3ccccc3)oc12` [Wogonin], at CDK9, the “Inhibitory potency CDK9” value was “◯”.
Turning to CGP60474, at CDK2, the “Inhibitory potency CDK2” value is recorded as “+++”. Besides, the “Inhibitory potency CDK1” value at CDK1 is “+++”.
Kenpaulione: the “Inhibitory potency CDK5” value at CDK5 is reported as “+”. In addition, the “Inhibitory potency CDK2” value on CDK2 is given as “+”. Besides, the “Inhibitory potency CDK1” value at CDK1 is reported as “+”.
As for LDC000067, the “Inhibitory potency CDK9” value at CDK9 was “+++”. Moreover, at CDK4, the “Inhibitory potency CDK4” value is listed as “+”. Moreover, at CDK1, the “Inhibitory potency CDK1” value is given as “+”.
Turning to ML167, the “Inhibitory potency CLK” value in the experiment with CLK is recorded as “++”.
With NU2058, the “Inhibitory potency CDK1” value at CDK1 was “+”.
Take NU6027: the “Inhibitory potency CDK1” value on CDK1 is listed as “+”.
Take NU 6102: on CDK4, the “Inhibitory potency CDK4” value is recorded as “+”. Also, the “Inhibitory potency CDK1” value on CDK1 is listed as “+++”.
On to NVP-LCQ195, for which, at CDK9, the “Inhibitory potency CDK9” value was “◯”. For the same molecule, the “Inhibitory potency CDK5” value at CDK5 is “++++”. The “Inhibitory potency CDK2” value at CDK2 was “+++”. The “Inhibitory potency CLK” value in the experiment with CLK was “◯”. Moreover, on CDK1, the “Inhibitory potency CDK1” value is given as “++++”.
For PHA-767491, the “Inhibitory potency CDK9” value at CDK9 was “+++”. The “Inhibitory potency CDK5” value on CDK5 is “+”. In addition, on CDK2, the “Inhibitory potency CDK2” value was “++”. The “Inhibitory potency CDK1” value on CDK1 is given as “++”.
In the case of Palbociclib Isethionate, the “Inhibitory potency CDK6” value at CDK6 is on record as “+++”.
Take Purvalanol A: on CDK4, the “Inhibitory potency CDK4” value is given as “+”.
As to Purvalanol B, the “Inhibitory potency CDK5” value on CDK5 is “++++”.
On to Ro-3306, for which the “Inhibitory potency CDK1” value at CDK1 is recorded as “+++”.
With TG003, the “Inhibitory potency CLK” value with CLK is “+++”.
“rhCHI3L1: recombinant human CHI3L1 (chitinase 3 like 1) protein, from R&D Inc. or generated at Brown University”: the “levels of mRNA encoding Ace2 and cathepsin L (CTSL)” value with ACE2, TMPRSS2, and CTSL [2] (rhCHI3L1 500 ng/mL, 37° C.) is “significantly upregulated”. The “levels of mRNA encoding ACE2, TMPRSS2, and CTSL” value with ACE2, TMPRSS2, and CTSL [2] (rhCHI3L1 250 or 500 ng/mL) was “significantly upregulated”; with ACE2, TMPRSS2, and CTSL [6], “significantly upregulated”. Besides, the “Calu-3 cell ACE2 accumulation” value in the experiment with ACE2 [3] is on record as “augmented”. Moreover, the “levels of mRNA encoding ACE2” value in the experiment with ACE2 [1] (setting [8]) is reported as “significantly upregulated”. The “levels of mRNA encoding TMPRSS2, CTSL and FURIN” value with TMPRSS2, CTSL and FURIN (setting [8]) is recorded as “significantly upregulated”. Besides, the uptake of pseudovirus entry in [4] is “potent stimulator”. In addition, the delta pseudovirus infection result in experiment [5] is reported as “augmented”. For the same molecule, the “cellular integration of S proteins” value in experiment [7] is given as “stimulated”.
